# From PubChem BioAssay (NCI)
#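 A five-concentration, 48-hour dose response in 96-well plates underlies each endpoint, interpolated linearly between surrounding concentrations. The concentration for full growth arrest is given as TGI.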
# What was measured:
# Experiment in all cases: DTP human tumour cell line panel, 48 h
# HOP-92 NSCLC = system: HOP-92 NSCLC
# UACC-62 melanoma = system: UACC-62 melanoma
# SF-539 CNS = system: SF-539 CNS
# UO-31 renal = system: UO-31 renal
# MDA-MB-231 breast = system: MDA-MB-231 breast
# RPMI-8226 leukemia = system: RPMI-8226 leukemia
# DU-145 prostate = system: DU-145 prostate
# SNB-75 CNS = system: SNB-75 CNS
# OVCAR-8 ovarian = system: OVCAR-8 ovarian
# SK-MEL-5 melanoma = system: SK-MEL-5 melanoma
SMILES,TGI (HOP-92 NSCLC) [µM],TGI (UACC-62 melanoma) [µM],TGI (SF-539 CNS) [µM],TGI (UO-31 renal) [µM],TGI (MDA-MB-231 breast) [µM],TGI (RPMI-8226 leukemia) [µM],TGI (DU-145 prostate) [µM],TGI (SNB-75 CNS) [µM],TGI (OVCAR-8 ovarian) [µM],TGI (SK-MEL-5 melanoma) [µM]
Brc1ccc(N=C/C=C(\Nc2ccc(Br)cc2)C23CC4CC(CC(C4)C2)C3)cc1,31.5,15,51.8,34.6,31.9,> 100,35.4,35.5,> 81.3,26.6
CCN(CC)CCC1CCCCN1CC(=O)N1c2ccccc2NC(=O)CC1C (stereo not given),> 100,> 100,> 100,> 100,> 100,> 100,> 100,11.8,> 100,> 100
COc1ccc(NS(=O)(=O)c2ccc3ncn(NS(=O)(=O)c4ccc(I)cc4)c(=O)c3c2)cc1,> 100,> 100,> 100,> 100,> 100,> 100,> 100,> 100,> 100,> 100
COc1ccc(-c2nc(SCC(=O)N/N=C/c3ccc([N+](=O)[O-])cc3)[nH]c2-c2ccc(OC)cc2)cc1,> 61.3,20.5,30.8,> 100,> 100,62,> 100,> 63.3,> 100,19.9
Cc1cc(N(C)C)ccc1N=Nc1ccc2ncccc2c1,> 100,> 100,> 100,> 100,> 100,> 100,> 100,> 100,> 100,98.1
CC(=O)OCC(OC(C)=O)C(OC(C)=O)C(/C=N\Nc1nc2ccccc2c(=O)[nH]1)OC(C)=O (stereo not given),> 100,> 100,> 100,> 100,> 100,> 100,> 100,> 100,> 100,> 100
COc1ccc2cc(NC(=O)Nn3cnnc3)ccc2c1,> 100,> 100,> 100,> 100,> 100,> 100,> 100,> 100,> 100,> 100
CC(C)(Cl)C(Br)CCC(=CCBr)CBr (mixture of isomers),5.1,11.5,4.93,3.42,3.51,3.22,21.3,7.31,9.25,7.77
O=C(Nn1c(-c2ccccc2)nc2ccccc2c1=O)c1ccc([N+](=O)[O-])cc1,> 100,> 100,> 100,> 100,> 100,> 100,> 100,> 100,> 100,> 100
Cc1ccc([N+](=O)[O-])cc1S(=O)(=O)Nc1ccc(C(=O)/C=C/c2ccccc2)cc1,41.1,28.1,> 100,40.7,32.3,37.1,29.5,32.3,50.2,32.1
COc1ccccc1NC(=S)NNC(=O)c1cc(-c2ccccc2)nc2ccccc12,36.5,23.2,28.1,24.6,63.7,53.6,32,85,49,19.8
Oc1c(Nc2ccccc2)cc2c3c1N=NC=3CCN=2,> 100,49.2,> 100,> 100,> 100,> 100,> 100,> 100,59.8,33.1
C/C(CC(O)(C(F)(F)Cl)C(F)(F)Cl)=N\Nc1ccccc1,69.6,> 100,> 100,> 100,> 100,> 100,> 100,78.9,> 100,36.9
COc1cc(S(=O)(=O)Nc2ccc(-c3csc(/N=C\c4ccccc4O)n3)cc2)ccc1Cl,> 100,> 100,> 100,> 100,> 100,> 100,> 100,> 100,> 100,> 100
CCOC(=O)C1C(c2ccccc2)C2(C#N)C(=N)OC1(C)C2(C#N)C#N (stereo not given),48.6,82.6,37.4,31.4,26.7,42.6,> 100,34.7,80.4,25.1
CCOC(=O)c1sc2c(c1OC(=O)c1ccc(Cl)cc1Cl)c(=O)n(-c1ccccc1)c(=S)n2-c1ccccc1,26,> 80.2,> 100,> 100,> 90.8,> 54.5,> 100,> 100,> 100,51.1
CCN1CCC(O)(/C=C/c2cccc(C)c2)C(C(=O)/C=C/c2cccc(C)c2)C1 (stereo not given),7.56,3.54,5.4,3.06,11.5,4.78,13.8,7.69,10.4,3.99
